Like-named read-outs stand apart in the source and are kept apart here.
Columns and labels:
[1] = target: T1, human NTPDase2 (Homo sapiens, UniProt Q9Y5L3); test: Hydrolysis by human NTPDase2; format: in vitro ADME; conditions: for Hydrolysis by NTPDase2: 100 μM, 1 h, activity with 100 μM ATP = 100%
T1 construct: made in house; host or cells: COS-7 cells (transfected; protein extract)
T1 sequence (Q9Y5L3 1-495): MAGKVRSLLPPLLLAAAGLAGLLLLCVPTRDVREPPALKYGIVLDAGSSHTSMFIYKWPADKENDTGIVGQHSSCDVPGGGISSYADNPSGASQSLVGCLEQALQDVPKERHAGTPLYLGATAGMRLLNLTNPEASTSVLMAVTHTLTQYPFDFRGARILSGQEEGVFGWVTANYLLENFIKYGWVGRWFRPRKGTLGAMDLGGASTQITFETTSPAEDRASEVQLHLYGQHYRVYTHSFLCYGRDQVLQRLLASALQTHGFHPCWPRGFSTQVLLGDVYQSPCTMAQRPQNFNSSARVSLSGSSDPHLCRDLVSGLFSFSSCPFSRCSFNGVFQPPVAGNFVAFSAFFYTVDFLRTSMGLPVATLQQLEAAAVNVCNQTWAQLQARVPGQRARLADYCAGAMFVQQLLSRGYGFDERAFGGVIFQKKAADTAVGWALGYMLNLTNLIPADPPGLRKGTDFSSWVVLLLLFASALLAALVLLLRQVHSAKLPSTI

[2] = target: T2, human NTPDase8 (Homo sapiens, UniProt Q5MY95); test: Hydrolysis by human NTPDase8; format: in vitro ADME; conditions: for Hydrolysis by NTPDase8: 100 μM, 1 h, activity with 100 μM ATP = 100%
T2 construct: made in house; host or cells: COS-7 cells (transfected; protein extract)
T2 sequence (Q5MY95 1-495): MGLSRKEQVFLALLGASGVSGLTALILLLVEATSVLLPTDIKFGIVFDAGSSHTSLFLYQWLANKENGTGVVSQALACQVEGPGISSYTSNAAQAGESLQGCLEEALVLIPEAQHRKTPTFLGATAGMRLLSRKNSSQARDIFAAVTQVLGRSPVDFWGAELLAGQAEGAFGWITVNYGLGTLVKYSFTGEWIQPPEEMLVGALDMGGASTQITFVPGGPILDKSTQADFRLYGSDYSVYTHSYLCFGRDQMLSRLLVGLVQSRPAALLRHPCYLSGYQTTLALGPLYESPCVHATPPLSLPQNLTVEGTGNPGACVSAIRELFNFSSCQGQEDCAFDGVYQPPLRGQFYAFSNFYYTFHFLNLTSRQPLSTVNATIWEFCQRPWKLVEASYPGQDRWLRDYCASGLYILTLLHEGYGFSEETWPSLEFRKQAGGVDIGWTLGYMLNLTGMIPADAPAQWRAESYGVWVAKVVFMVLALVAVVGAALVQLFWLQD

[3] = target: T3, human NPP1 (Homo sapiens, UniProt P22413); test: Inhibition of NPP1 activity; format: biochemical; conditions: for type of inhibition: Dixon and Cornish-Bowden methods; for inhibition of pnp-TMP hydrolysis by NPP1: analogue and pnp-TMP 100 μM
T3 construct: made in house; host or cells: COS-7 cells (transfected; protein extract / cell lysate)
T3 sequence (P22413 1-925): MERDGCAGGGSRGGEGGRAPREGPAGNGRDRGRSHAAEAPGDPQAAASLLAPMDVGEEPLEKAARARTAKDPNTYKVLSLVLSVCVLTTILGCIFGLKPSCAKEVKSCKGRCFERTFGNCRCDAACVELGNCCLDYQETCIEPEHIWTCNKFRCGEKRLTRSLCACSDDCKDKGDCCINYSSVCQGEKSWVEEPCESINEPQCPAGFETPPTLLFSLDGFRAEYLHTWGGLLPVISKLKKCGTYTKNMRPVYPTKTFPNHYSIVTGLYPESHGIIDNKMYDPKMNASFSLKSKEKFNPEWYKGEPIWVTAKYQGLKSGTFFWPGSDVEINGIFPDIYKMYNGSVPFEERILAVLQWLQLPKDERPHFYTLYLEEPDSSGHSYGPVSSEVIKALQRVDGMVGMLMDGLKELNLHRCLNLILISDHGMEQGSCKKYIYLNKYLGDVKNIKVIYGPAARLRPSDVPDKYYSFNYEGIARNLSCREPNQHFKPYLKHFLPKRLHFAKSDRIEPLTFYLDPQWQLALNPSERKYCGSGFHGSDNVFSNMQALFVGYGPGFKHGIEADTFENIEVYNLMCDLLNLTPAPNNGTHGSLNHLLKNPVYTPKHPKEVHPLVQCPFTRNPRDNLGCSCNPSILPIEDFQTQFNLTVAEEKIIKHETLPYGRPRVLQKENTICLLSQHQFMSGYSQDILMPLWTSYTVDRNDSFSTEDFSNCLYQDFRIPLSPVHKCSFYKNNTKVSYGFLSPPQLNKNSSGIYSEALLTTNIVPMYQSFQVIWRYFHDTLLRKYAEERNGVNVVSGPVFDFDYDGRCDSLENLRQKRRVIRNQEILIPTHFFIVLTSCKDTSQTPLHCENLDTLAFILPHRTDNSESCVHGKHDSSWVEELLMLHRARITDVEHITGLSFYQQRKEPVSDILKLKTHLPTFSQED

[4] = target: T4, human NTPDase1 (Homo sapiens, UniProt P49961); test: Inhibition of NTPDase1 activity; conditions: for effect on human NTPDase1 activity: Table 5, ATP and analogue 100 μM, 100% activity = ATP alone, read as inhibition; for inhibition of the hydrolysis of ATP by NTPDase1: analogue and ATP 100 μM
T4 sequence (P49961 1-510): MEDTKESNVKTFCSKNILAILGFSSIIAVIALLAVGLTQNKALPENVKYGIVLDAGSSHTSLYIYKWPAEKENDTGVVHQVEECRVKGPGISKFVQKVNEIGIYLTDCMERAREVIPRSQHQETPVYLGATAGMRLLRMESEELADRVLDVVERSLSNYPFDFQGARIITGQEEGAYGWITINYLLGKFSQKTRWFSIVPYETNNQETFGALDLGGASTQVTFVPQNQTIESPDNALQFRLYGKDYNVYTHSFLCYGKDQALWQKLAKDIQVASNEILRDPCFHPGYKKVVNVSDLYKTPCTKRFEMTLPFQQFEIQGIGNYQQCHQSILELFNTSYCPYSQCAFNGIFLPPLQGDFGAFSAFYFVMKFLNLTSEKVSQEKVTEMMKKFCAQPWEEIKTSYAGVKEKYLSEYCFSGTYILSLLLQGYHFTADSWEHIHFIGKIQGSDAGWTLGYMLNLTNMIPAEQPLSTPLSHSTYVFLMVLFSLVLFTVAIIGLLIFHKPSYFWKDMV

Nc1ncnc2c1ncn2[C@@H]1O[C@H](COP(O)(=S)OP(=O)(O)CP(=O)(O)O)[C@@H](O)[C@H]1O (single isomer, unassigned; isomer a) [APPCP-α-S (isomer A), adenosine 5′-[Pα-thio]-β,γ-methylenetriphosphate]
Hydrolysis by NTPDase2 ([1]; listed as APPCP-α-S A): 4.7%
Hydrolysis by NTPDase8 ([2]; listed as APPCP-α-S A): 4.4%
Ki ([3]; dissociation constant for EIS complex, Cornish-Bowden plot, listed as APPCP-α-S A, read-out: Ki′): 4500 ± 3 nM
Ki ([3]; pNP-TMP as substrate, Dixon plot, listed as APPCP-α-S A, read-out: Ki): 4500 ± 30 nM
effect on human NTPDase1 activity ([4]; listed as APPCP-α-S A): 58.4 ± 2.1%
inhibition of the hydrolysis of ATP by NTPDase1 [4]: did not interfere

Nc1ncnc2c1ncn2[C@@H]1O[C@H](COP(O)(=S)OP(=O)(O)C(Cl)(Cl)P(=O)(O)O)[C@@H](O)[C@H]1O (single isomer, unassigned) [APPCCl2P-α-S, adenosine 5′-[Pα-thio]-β,γ-(dichloromethylene)triphosphate]
IC50 [3]: 390 nM
Ki [3]: 20 nM
type of inhibition [3]: mixed type inhibition, predominantly competitive

Nc1ncnc2c1ncn2[C@@H]1O[C@H](COP(=O)(O)OP(O)(O)=S)[C@@H](O)[C@H]1O [ADP-β-S, adenosine 5′-[β-thio]diphosphate, reference compound]
Relative hydrolysis by NTPDase8 [2]: 14 ± 0.1 % ± SD of ADP or AP2A hydrolysis
inhibition of pnp-TMP hydrolysis by NPP1 [3]: 95%
inhibition of the hydrolysis of ATP by NTPDase1 [4]: less than 50%

adenosine-5′-tetrathiobisphosphonate
Relative hydrolysis by NTPDase2 [1]: 1 ± 0.2 % ± SD of ADP or AP2A hydrolysis
Relative hydrolysis by NTPDase8 [2]: 7 ± 1 % ± SD of ADP or AP2A hydrolysis
inhibition of pnp-TMP hydrolysis by NPP1 [3]: 4%
inhibition of the hydrolysis of ATP by NTPDase1 [4]: 54%

Nc1ncnc2c1ncn2[C@@H]1O[C@H](COP(O)(=S)OP(=O)(O)CP(=O)(O)O)[C@@H](O)[C@H]1O (single isomer, unassigned; isomer b) [APPCP-α-S (isomer B), adenosine 5′-[Pα-thio]-β,γ-methylenetriphosphate]
Hydrolysis by NTPDase2 ([1]; listed as APPCP-α-S B): 5.5 ± 0.3%
Hydrolysis by NTPDase8 ([2]; listed as APPCP-α-S B): 5.3 ± 0.2%
Ki ([3]; pNP-TMP as substrate, Dixon plot, listed as APPCP-α-S B, read-out: Ki): 1300 ± 10 nM
effect on human NTPDase1 activity ([4]; listed as APPCP-α-S B): 0.5 ± 0.02%
inhibition of the hydrolysis of ATP by NTPDase1 [4]: did not interfere

Nc1ncnc2c1ncn2[C@@H]1O[C@H](COP(O)(=S)OP(=O)(O)C(Cl)(Cl)P(=O)(O)O)[C@@H](O)[C@H]1O (single isomer, unassigned; isomer b) [APPCCl2P-α-S (isomer B), adenosine 5′-[Pα-thio]-β,γ-(dichloromethylene)triphosphate]
Hydrolysis by NTPDase2 ([1]; listed as APPCCl2P-α-S B): 5.5%
Hydrolysis by NTPDase8 ([2]; listed as APPCCl2P-α-S B): 5.3%
Ki ([3]; pNP-TMP as substrate, Dixon plot, read-out: Ki): 15200 ± 100 nM
effect on human NTPDase1 activity ([4]; listed as APPCCl2P-α-S B): 21.6 ± 1.0%
inhibition of the hydrolysis of ATP by NTPDase1 [4]: did not interfere

Nc1ncnc2c1ncn2[C@@H]1O[C@H](COP(=O)(O)CP(=O)(O)OP(O)(O)=S)[C@@H](O)[C@H]1O [APCPP-γ-S, adenosine 5′-[Pγ-thio]-α,β-methylenetriphosphate]
Hydrolysis by NTPDase2 [1]: 4.7 ± 0.2%
Hydrolysis by NTPDase8 [2]: 5.2 ± 0.2%
Ki [3]: < 9000 nM
type of inhibition [3]: mixed type inhibition, predominantly competitive
Ki ([3]; NPP1, text, read-out: Ki): 20 nM
effect on human NTPDase1 activity [4]: 18.7 ± 0.8%

di-adenosine-5′,5″-tetrathiobisphosphonate
Relative hydrolysis by NTPDase8 [2]: 3.0 ± 0.1 % ± SD of ADP or AP2A hydrolysis
inhibition of pnp-TMP hydrolysis by NPP1 [3]: ~60%
inhibition of the hydrolysis of ATP by NTPDase1 [4]: ~60%

Nc1ncnc2c1ncn2[C@@H]1O[C@H](COP(O)(=S)OP(=O)(O)C(Cl)(Cl)P(=O)(O)O)[C@@H](O)[C@H]1O (single isomer, unassigned; isomer a) [APPCCl2P-α-S (isomer A), adenosine 5′-[Pα-thio]-β,γ-(dichloromethylene)triphosphate]
Hydrolysis by NTPDase2 ([1]; listed as APPCCl2P-α-S A): 5.2 ± 0.1%
Hydrolysis by NTPDase8 ([2]; listed as APPCCl2P-α-S A): 4.3 ± 0.1%
IC50 ([3]; NPP1, text, read-out: IC50): 600 nM
Ki ([3]; NPP1, text, read-out: Ki): 685 nM
effect on human NTPDase1 activity ([4]; listed as APPCCl2P-α-S A): 0.5 ± 0.01%
inhibition of the hydrolysis of ATP by NTPDase1 [4]: did not interfere

Source: patent US20140378408A1, “NUCLEOSIDE 5'-PHOSPHOROTHIOATE ANALOGUES AND USES THEREOF” (BAR-ILAN UNIVERSITY, an Israeli University, priority 2012, published 2014)
